Reference: patent US9267949B2, “Alkylamino BODIPY dyes as selective fluorescent probes for proteins and mouse embryonic stem cells” (National University of Singapore, priority 2011, dated 2016)

Key:
[1] = Spectroscopic properties of the BDM library (absorbance and emission maxima); assay type: physicochemical
[2] = Quantum yield measurements; assay type: physicochemical; settings: referred to Rhodamine B in EtOH, excitation 510 nm, emission integrated 540-800 nm
Procedure: Quantum yields were calculated by measuring the integrated emission area of the fluorescent spectra, and referring them to the area measured for Rhodamine B in EtOH after excitation at 510 nm (ΦRho-B=0.70). Quantum yields for the BDM products were then calculated using equation below, where F represents the area of fluorescent emission, n is reflective index of the solvent, and Abs is absorbance at excitation wavelength selected for standards and samples. Emission was integrated from 540 nm to 800 nm.

Row | SMILES | λmax (ABS) [1] [nm] | λmax (EM) [1] [nm] | φ (quantum yield) [2]
1 | COc1cc(/C=C/c2cc(C)c3n2[B-](F)(F)[N+]2=CC=CC2=C3CCN)cc(OC)c1OC [BDM-1] | 561 | 586 | 0.21
2 | Cc1cc(/C=C/c2ccc(N(C)C)cc2)n2c1C(CCN)=C1C=CC=[N+]1[B-]2(F)F [BDM-2] | 607 | 685 | 0.01
3 | Cc1cc(/C=C/c2ccc(N(C)CCC#N)cc2)n2c1C(CCN)=C1C=CC=[N+]1[B-]2(F)F [BDM-3] | 600 | 683 | 0.05
4 | Cc1cc(/C=C/c2ccc(OCc3ccccc3)c(OCc3ccccc3)c2)n2c1C(CCN)=C1C=CC=[N+]1[B-]2(F)F [BDM-4] | 566 | 590 | 0.42
5 | Cc1cc(/C=C/c2ccc(-c3ccccc3)cc2)n2c1C(CCN)=C1C=CC=[N+]1[B-]2(F)F [BDM-5] | 561 | 575 | 0.50
6 | Cc1cc(/C=C/c2c3ccccc3cc3ccccc23)n2c1C(CCN)=C1C=CC=[N+]1[B-]2(F)F [BDM-6] | 536 | 682 | 0.12
7 | COc1ccc(/C=C/c2cc(C)c3n2[B-](F)(F)[N+]2=CC=CC2=C3CCN)cc1OCc1ccccc1 [BDM-7] | 566 | 591 | 0.37
8 | Cc1cc(/C=C/c2ccc(-n3ccnc3)cc2)n2c1C(CCN)=C1C=CC=[N+]1[B-]2(F)F [BDM-8] | 561 | 575 | 0.34
9 | Cc1cccc(/C=C/c2cc(C)c3n2[B-](F)(F)[N+]2=CC=CC2=C3CCN)c1 [BDM-9] | 554 | 567 | 0.33
10 | Cc1cc(/C=C/c2ccc(Cl)cc2)n2c1C(CCN)=C1C=CC=[N+]1[B-]2(F)F [BDM-12] | 556 | 567 | 0.32
11 | Cc1cc(/C=C/c2ccc(N(c3ccccc3)c3ccccc3)cc2)n2c1C(CCN)=C1C=CC=[N+]1[B-]2(F)F [BDM-14] | 593 | 624 | 0.02
12 | Cc1cc(/C=C/c2cc(C)c3n2[B-](F)(F)[N+]2=CC=CC2=C3CCN)cc(C)c1OCc1ccccc1 [BDM-16] | 561 | 574 | 0.14
13 | CCCCN(CCCC)c1ccc(/C=C/C2=[N+]3C(=C(CCN)c4cccn4[B-]3(F)F)C(C)=C2)cc1 [BDM-17] | 622 | 695 | 0.03
14 | CSc1ccc(/C=C/c2cc(C)c3n2[B-](F)(F)[N+]2=CC=CC2=C3CCN)cc1 [BDM-18] | 567 | 588 | 0.33
15 | Cc1cc(/C=C/c2ccc(C(C)C)cc2)n2c1C(CCN)=C1C=CC=[N+]1[B-]2(F)F [BDM-19] | 555 | 569 | 0.71
16 | CC1=CC(/C=C/c2cccc(Oc3ccccc3)c2)=[N+]2C1=C(CCN)c1cccn1[B-]2(F)F [BDM-20] | 554 | 564 | 0.47
17 | Cc1cc(/C=C/c2ccco2)n2c1C(CCN)=C1C=CC=[N+]1[B-]2(F)F [BDM-22] | 567 | 584 | 0.14
18 | CC1=CC(/C=C/c2ccccc2)=[N+]2C1=C(CCN)c1cccn1[B-]2(F)F [BDM-27] | 553 | 566 | 0.39
19 | Cc1cc(/C=C/c2ccc(-c3cccs3)s2)n2c1C(CCN)=C1C=CC=[N+]1[B-]2(F)F [BDM-30] | 596 | 634 | 0.11
20 | COc1ccc(/C=C/c2cc(C)c3n2[B-](F)(F)[N+]2=CC=CC2=C3CCN)c2ccccc12 [BDM-32] | 576 | 624 | 0.25
21 | Cc1ccc(O)c(/C=C/c2cc(C)c3n2[B-](F)(F)[N+]2=CC=CC2=C3CCN)c1 [BDM-33] | 564 | 580 | 0.14
22 | Cc1ccc2cccc(/C=C/c3cc(C)c4n3[B-](F)(F)[N+]3=CC=CC3=C4CCN)c2c1 [BDM-34] | 547 | 581 | 0.65
23 | Cc1cc(/C=C/c2ccc(C)c3ccccc23)n2c1C(CCN)=C1C=CC=[N+]1[B-]2(F)F [BDM-36] | 568 | 595 | 0.23
24 | CC1=CC(/C=C/c2csc3ccccc23)=[N+]2C1=C(CCN)c1cccn1[B-]2(F)F [BDM-37] | 566 | 588 | 0.15
25 | COc1ccc(/C=C/c2cc(C)c3n2[B-](F)(F)[N+]2=CC=CC2=C3CCN)c(Cl)c1O [BDM-38] | 565 | 579 | 0.06

Row | SMILES | λmax (ABS) [1] [nm] | λmax (EM) [1] [nm] | φ (quantum yield) [2]
26 | Cc1cc(/C=C/c2ccccc2-c2ccccc2)n2c1C(CCN)=C1C=CC=[N+]1[B-]2(F)F [BDM-40] | 554 | 567 | 0.53
27 | COc1ccc(Oc2cccc(/C=C/c3cc(C)c4n3[B-](F)(F)[N+]3=CC=CC3=C4CCN)c2)cc1 [BDM-42] | 554 | 563 | 0.25
28 | Cc1cc(/C=C/c2cc(C(C)(C)C)ccc2O)n2c1C(CCN)=C1C=CC=[N+]1[B-]2(F)F [BDM-43] | 564 | 579 | 0.21
29 | CCCCCCOc1ccc(/C=C/c2cc(C)c3n2[B-](F)(F)[N+]2=CC=CC2=C3CCN)cc1 [BDM-45] | 564 | 583 | 0.74
30 | CCCCOc1ccc(/C=C/c2cc(C)c3n2[B-](F)(F)[N+]2=CC=CC2=C3CCN)cc1 [BDM-46] | 564 | 583 | 0.53
31 | C=CCOc1ccc(/C=C/c2cc(C)c3n2[B-](F)(F)[N+]2=CC=CC2=C3CCN)cc1 [BDM-48] | 563 | 583 | 0.83
32 | Cc1cc(/C=C/c2ccc(C=O)cc2)n2c1C(CCN)=C1C=CC=[N+]1[B-]2(F)F [BDM-49] | 562 | 572 | 0.24
33 | CCOc1ccc(/C=C/c2cc(C)c3n2[B-](F)(F)[N+]2=CC=CC2=C3CCN)cc1OCC [BDM-53] | 568 | 600 | 0.46
34 | COc1ccc(Br)cc1/C=C/c1cc(C)c2n1[B-](F)(F)[N+]1=CC=CC1=C2CCN [BDM-54] | 559 | 573 | 0.52
35 | COc1ccc2ccccc2c1/C=C/C1=[N+]2C(=C(CCN)c3cccn3[B-]2(F)F)C(C)=C1 [BDM-61] | 576 | 610 | 0.22
36 | COc1ccc(/C=C/C2=[N+]3C(=C(CCN)c4cccn4[B-]3(F)F)C(C)=C2)cc1OC [BDM-62] | 567 | 594 | 0.43
37 | CCOc1ccc(/C=C/C2=[N+]3C(=C(CCN)c4cccn4[B-]3(F)F)C(C)=C2)cc1OC [BDM-63] | 568 | 597 | 0.54
38 | CC1=CC(/C=C/c2ccc(-c3ccccc3)s2)=[N+]2C1=C(CCN)c1cccn1[B-]2(F)F [BDM-65] | 589 | 615 | 0.15
39 | CC1=CC(/C=C/c2ccc(OC(F)(F)F)cc2)=[N+]2C1=C(CCN)c1cccn1[B-]2(F)F [BDM-68] | 551 | 561 | 0.63
40 | COc1ccc2c(OC)ccc(/C=C/C3=[N+]4C(=C(CCN)c5cccn5[B-]4(F)F)C(C)=C3)c2c1 [BDM-70] | 582 | 642 | 0.13
41 | CC1=CC(/C=C/c2cc(Br)ccc2O)=[N+]2C1=C(CCN)c1cccn1[B-]2(F)F [BDM-73] | 561 | 575 | 0.28
42 | CC1=CC(/C=C/c2ccc(OC(C)(C)C)cc2)=[N+]2C1=C(CCN)c1cccn1[B-]2(F)F [BDM-75] | 560 | 585 | 0.53
43 | CCCc1ccc(/C=C/C2=[N+]3C(=C(CCN)c4cccn4[B-]3(F)F)C(C)=C2)cc1 [BDM-77] | 557 | 569 | 0.54
44 | CC1=CC(/C=C/c2ccc(N(C)C)cc2[N+](=O)[O-])=[N+]2C1=C(CCN)c1cccn1[B-]2(F)F [BDM-78] | 591 |  | 0.01
45 | COc1cc(OC)c(/C=C/C2=[N+]3C(=C(CCN)c4cccn4[B-]3(F)F)C(C)=C2)c(OC)c1 [BDM-82] | 579 | 621 | 0.40
46 | CC1=CC(/C=C/c2ccc(-c3ccccn3)cc2)=[N+]2C1=C(CCN)c1cccn1[B-]2(F)F [BDM-88] | 565 | 576 | 0.21
47 | CC1=CC(/C=C/c2ccc3c4c(cccc24)CC3)=[N+]2C1=C(CCN)c1cccn1[B-]2(F)F [BDM-89] | 576 | 612 | 0.30
48 | CC1=CC(/C=C/c2ccc(OCc3ccccc3)cc2)=[N+]2C1=C(CCN)c1cccn1[B-]2(F)F [BDM-90] | 565 | 582 | 0.26
49 | CC1=CC(/C=C/c2ccc(N(C)CCO)cc2)=[N+]2C1=C(CCN)c1cccn1[B-]2(F)F [BDM-91] | 614 | 699 | 0.02
